Data taken from US6362212B1, “Oxime derivative and bactericide containing the same as active ingredient” (Shionogi & Company, Ltd., priority 1994, dated 2002).

Columns and labels:
[1] = tested on: Erysiphe graminis f. sp. tritici; test: Controlling effect on Erysiphe graminis f. sp. tritici by foliage application (pot experiment); format: in vivo; conditions: foliage spray on wheat (cv. NORIN No. 61) seedlings, infected area after 10 days in greenhouse at 20° C.; for pest or weed control at 500 ppm: Blumeria graminis, foliar, 240 h, read-out: Controlling effect on ErYsiphe graminis f. sp. tritici by foliage application at 500 ppm (percent control)
Procedure, shortened: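 Wheat seedlings (cv. NORIN No. 61, 2-3 weeks old) sprayed with compound in DMF diluted in water with spreader, then inoculated with conidia 24 hours later. Kept in greenhouse at 20 °C for 10 days; percent control calculated from infected leaf area.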

Puccinia coronata = test: Controlling effect on Puccinia coronata by foliage application (pot experiment); format: in vivo; conditions: foliage spray on oat (cv. PC-38) seedlings, infected area after 1 day moist chamber and 8 days greenhouse at 20° C.
Procedure, shortened: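 Oat seedlings (cv. PC-38, 2–3 weeks old) were sprayed with compound in DMF diluted with spreader-containing water, then inoculated 24 h later with P. coronata spores diluted in talc. Plants were held 1 day in a moist chamber at 20° C, then 8 days in a greenhouse at 20° C; percent control came from infected leaf area.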

Sphaerotheca fuliginea = test: Controlling effect on Sphaerotheca fuliginea by foliage application (pot experiment); format: in vivo; conditions: foliage spray on cucumber (cv. TSUKUBASHIROIBO) first leaves, infected area after 10 days in greenhouse at 20° C.; for pest or weed control at 500 ppm: Podosphaera fuliginea, in Cucumis sativus, foliar, 240 h, read-out: Controlling effect on Sphaerotheca fuliginea by foliage application at 500 ppm (percent control)
Procedure, shortened: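 First leaves of cucumber seedlings, 2-3 weeks old, were sprayed with compound (DMF solution diluted in water with spreader). They were inoculated 24 h later with a Sphaerotheca fuliginea conidia spray and kept 10 days at 20° C in a greenhouse. Percent control was calculated from infected leaf area.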

[2] = tested on: Pseudoperonospora cubensis; test: Controlling effect on Pseudoperonospora cubensis by foliage application (pot experiment); format: in vivo; conditions: foliage spray on cucumber (var. TSUKUBASHIROIBO) first leaves, lesion area after 10 days in moist chamber at 20° C.
Procedure, shortened: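 Cucumber plants grown 2–3 weeks were sprayed on first leaves with compound (DMF solution diluted in water with spreader); 24 h later, Pseudoperonospora cubensis zoosporangia suspension dropped on leaves. Plants held in moist chamber at 20° C for 10 days; lesion area observed and percent control calculated.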

Botrytis cinerea = test: Controlling effect on Botrytis cinerea by foliage application (pot experiment); format: in vivo; conditions: foliage spray on cucumber (cv. TSUKUBASHIROIBO) first leaves, mycelial disks, lesion diameter after 3 days in moist chamber at 20° C.
Pyricularia oryzae = format: in vivo; conditions: foliage spray on rice seedlings (cv. […]), number of lesions six days after the inoculation

Structure (SMILES)	melting point [°C]	pest or weed control at 500 ppm [1] [%]	Controllng effect on Puccinia coronata by foliage application at 500 ppm (percent control) (Puccinia coronata)	pest or weed control at 500 ppm (Sphaerotheca fuliginea) [%]	Controlling effect on Pseudoperonospora cubensis by foliage application at 500 ppm (percent control) [2] [percent control]	Controlling effect on Botrytis cinerea by foliage application at 500 ppm (percent control) (Botrytis cinerea)	Controlling effect on PYricularia orYzae by foliage application at 500 ppm (percent control) (Pyricularia oryzae)	Controlling effect on ErYsiphe graminis f. sp. tritici by foliage application at 500 ppm (percent control) [1] [percent control]	Controlling effect on Sphaerotheca fuliginea by foliage application at 500 ppm (percent control) (Sphaerotheca fuliginea)
CON=C(c1cc(C)no1)c1ccccc1COc1ncc(C(F)(F)F)cc1Cl [Compound No. 690, 2-(3-chloro-5-trifluoromethyl-2-pyridyloxymethyl)phenyl 3-methylisoxazol-5-yl ketone O-methyloxime]	77 to 79	–	–	–	–	–	–	–	–
CON=C(c1nnco1)c1ccccc1COc1cc(C)ccc1C [Compound No. 736, 2-(2,5-dimethylphenoxymethyl)phenyl 1,3,4-oxadiazol-2-yl ketone O-methyloxime]	134 to 135	100	100	100	–	–	–	–	–
CON=C(c1ncon1)c1ccccc1COc1ccc(Cl)cc1 [Compound No. 807, 2-(4-chlorophenoxymethyl)phenyl 1,2,4-oxadiazol-3-yl ketone O-methyloxime]	107 to 108	–	–	100	–	–	–	–	–
CON=C(c1cc(C)no1)c1ccccc1CON=C(C)c1ccc(Cl)c(Cl)c1 [compound 2528, 2-(3,4-dichloro-α-methylbenzylideneaminooxymethyl)phenyl 3-methylisoxazol-5-yl ketone O-methyloxime]	84 to 85	–	–	100	100	–	–	–	–
CON=C(c1nnn(C)n1)c1ccccc1COc1cc(C)ccc1C [Compound No. 2036, 2-(2,5-dimethylphenoxymethyl)phenyl 2-methyl-2H-tetrazol-5-yl ketone O-methyloxime]	131 to 132	90	–	100	–	–	–	–	–
CON=C(c1ccccc1COc1cccc(Cl)c1)n1ccnc1 [Compound No. 6, 1-[2-(3-chlorophenoxymethyl)-α-methoxyiminobenzyl]imidazole]	96.5 to 97.5	100	100	–	–	100	90	–	–
CON=C(c1ccon1)c1ccccc1COc1cc(C)ccc1C (single isomer, unassigned) [Compound No. 336, 2-(2,5-dimethylphenoxymethyl)phenyl isoxazol-3-yl ketone O-methyloxime]	104 to 108	97	100	100	–	–	90	–	–
CON=C(c1ccccc1COc1ccc(Cl)cc1)n1ccnc1 [Compound No. 7]	–	–	97	–	–	100	97	100	100
CON=C(c1ccccc1COc1cccc(Cl)c1)n1cncc1C [compound 206]	–	–	97	–	–	97	90	90	100
CON=C(c1ccccc1COc1ccccc1Cl)n1ccnc1 [Compound No. 5]	–	–	90	–	–	70	97	90	100
CCON=C(c1ccccc1COc1ccccc1)n1cncc1C [compound 215]	–	–	90	–	–	97	70	90	100
CON=C(c1ncno1)c1ccccc1COc1ccc(Cl)cc1 [Compound No. 1584, 2-(4-chlorophenoxymethyl)phenyl 1,2,4-oxadiazol-5-yl ketone O-methyloxime]	96 to 97.5	100	70	100	–	–	70	–	–
CON=C(c1ccccc1COc1ccccc1C)n1ccnc1 [Compound No. 13]	–	–	97	–	–	70	90	90	100
CON=C(c1ccccc1COc1ccc(C)cc1)n1ccnc1 [Compound No. 15]	–	–	100	–	–	100	90	97	100
CON=C(c1ccccc1COc1ccccc1)n1ccnc1 [Compound No. 1]	–	–	97	–	–	100	90	90	100
CON=C(c1ccccc1COc1ccc(Cl)cc1)n1cncc1C [compound 207]	–	–	97	–	–	100	90	100	100
